Earlier results on two substances are cited in patent US20070292469A1, “Antimicrobial composition” (priority 2005, published 2007).

This data set deals with wide range of microorganisms. The conditions noted are these: literature statement (Block, Disinfection, Sterilization, and Preservation 4th ed. 1991).

Turning to “α-4-[1-tris(2-hydroxyethyl) ammonium-2-butenyl] poly[1-dimethylammonium-2-butenyl]-ω-tris(2-hydroxyethyl)ammonium chloride [polyquaternium 1]”, the antimicrobial activity entry is “significant antimicrobial activity”.

With monoethanolamines, the antimicrobial activity result is reported as “lack dramatic antimicrobial activity”.
